Legend:
[1] = Broth DAP test: trained panel rates saltiness of compounds in simple broth; type: in vivo; design: key: DAP score; >7.6 indicates saltiness or salt enhancement in broth; settings: single compound in simple broth; best DAP score of tested concentrations 0.1, 1 and 10 ppm; DAP score greater than 7.6 indicates saltiness or salt enhancement
Experimental: (§1) Briefly, each individual tested compound was placed in water and in sodium solution to test saltiness and saltiness enhancement potential. Tests in water were executed in a compound concentration of 10 ppm. Tests in sodium solution were executed in compound concentrations of 0.1, 1 and 10 ppm. Two control sodium solutions with known organoleptic salt intensities were provided as references for each test. The test for individual compounds was also conducted using simple broth instead of sodium solution. A number of compound combinations identified from the Na-solution DAP test were used for the broth DAP test. Tests were executed with a trained panel of 9-12 assessors. For Na-solution DAP tests, a DAP score of greater than 3.1 indicates saltiness or salt enhancement. The DAP score can be correlated with a sodium reduction potential by subtracting 3.1 from the DAP score. […] For broth DAP tests, a DAP score of greater than 7.6 indicates saltiness or salt enhancement. The DAP score can be correlated with a sodium reduction potential by subtracting 7.6 from the DAP score.

[2] = Na-solution DAP test: trained panel rates saltiness of compounds in sodium solution; type: in vivo; design: key: DAP score; >3.1 indicates saltiness or salt enhancement; settings: single compound in sodium solution; best DAP score of tested concentrations 0.1, 1 and 10 ppm; DAP score greater than 3.1 indicates saltiness or salt enhancement
Experimental: as §1

C=C[C@@]1(C)CC(=O)C2[C@]3(C)C(C[C@@H](O)[C@@]2(O)C1=O)C(C)(C)[C@H](OC(C)=O)[C@H](OC(C)=O)[C@@H]3OC(=O)c1ccccc1 (stereo partly shown) [Compound 32, Orthosiphol I]
DAP in Broth [1]: 8.1 | DAP in Na-Sol. [2]: 3.5

O=C(/C=C/CC/C=C/c1ccc2c(c1)OCO2)N1CCCCC1 [Compound 14, Pipersintenamide]
DAP in Na-Sol. [2]: 3.6

CCCCCCCCCCC[C@H](O)CC(=O)CCc1ccc(O)c(OC)c1 [Compound 1, 12-Gingerol]
DAP in Broth [1]: 7.8 | DAP in Na-Sol. [2]: 3.6

C=CC(C)(CC/C=C(\C)CC/C=C(\C)CC/C=C(/C)COC1OC(C)C(O)C(OC2OC(COC3OC(C)C(O)C(O)C3OC(=O)/C(C)=C/CC/C(C)=C/CC/C(C)=C/CCC(C)(C=C)OC3OC(CO)C(O)C(O)C3OC3OC(CO)C(O)C(O)C3O)C(O)C(O)C2O)C1O)OC1OC(CO)C(O)C(O)C1OC1OC(CO)C(O)C(O)C1O (stereo not shown) [Compound 91, Capsianoside E]
DAP in Na-Sol. [2]: 3.7

COc1cc(C[C@@H](CO)[C@H](CO)Cc2ccc(O[C@@H]3O[C@H](CO)[C@@H](O)[C@H](O)[C@H]3O)c(OC)c2)ccc1O [Compound 48, Secoisolariciresinol; Secoisolariciresin-4-yl b-D-glucopyranoside]
DAP in Broth [1]: 7.8 | DAP in Na-Sol. [2]: 3.7

a pentadecatrienyl-1,3-benzenediol [Compound 10]
DAP in Broth [1]: 7.9 | DAP in Na-Sol. [2]: 3.9

COc1c2ccoc2c(OCC=C(C)C)c2oc(=O)ccc12 [Compound 65, Phellopterin]
DAP in Broth [1]: 7.9 | DAP in Na-Sol. [2]: 3.3

C/C=C(\C)C(=O)O[C@H]1C[C@@H](OC(C)=O)[C@@]2(C)CO[C@@H]3C2[C@@]1(C)[C@@H](CC(=O)OC)[C@]1(C)C2=C(C)[C@H](c4ccoc4)C[C@H]2O[C@H]31 (stereo partly shown) [Compound 58, Salannin]
DAP in Broth [1]: 8.0 | DAP in Na-Sol. [2]: 3.3

CCCCC/C=C/C(=O)CCc1ccc(O)c(OC)c1 [Compound 4, 6-Shogaol]
DAP in Na-Sol. [2]: 3.5

CC(C)C(=O)c1c2c(c3oc(=O)cc(-c4ccccc4)c3c1O)CC(C(C)(C)O)O2 (stereo not shown) [Compound 60, Mammea A/AD cyclo F]
DAP in Broth [1]: 8.1 | DAP in Na-Sol. [2]: 3.8

CC(=O)OC1C(O)COC(OC2C(O)C(C)OC(OC(C)(CCC=C(C)C)C3C(O)CC4(C)C3CCC3C5(C)CCC(OC6OCC(O)C(O)C6O)C(C)(C)C5CCC34C)C2O)C1O (stereo not shown) [Compound 38]
DAP in Broth [1]: 8.1 | DAP in Na-Sol. [2]: 3.9

CC(C)=CCOc1c2occc2cc2ccc(=O)oc12 [Compound 64, Imperatorin]
DAP in Broth [1]: 7.8 | DAP in Na-Sol. [2]: 3.7

CC(C)(O)[C@@H](O)COc1c2ccoc2cc2oc(=O)ccc12 [Compound 63, Prangol]
DAP in Broth [1]: 8.0 | DAP in Na-Sol. [2]: 3.5

CC1CCC2(OC1)OC1CC3C4CCC5CC(OC6OC(CO)C(OC7OC(CO)C(O)C(OC8OC(CO)C(O)C(OC9OCC(O)C(O)C9O)C8O)C7O)C(OC7OCC(O)C(O)C7O)C6O)CCC5(C)C4CC(=O)C3(C)C1C2C (stereo not shown) [Compound 37]
DAP in Broth [1]: 8.1 | DAP in Na-Sol. [2]: 3.7

COc1ccc(-c2c(O)c3c(OC)c4c(cc3oc2=O)OC(C)(C)C=C4)cc1 [Compound 26, Robustic acid]
DAP in Na-Sol. [2]: 3.4

O=C(O)/C=C/c1ccc(O)c2c1C(C(=O)OC(Cc1ccc(O)c(O)c1)C(=O)O)C(c1ccc(O)c(O)c1)O2 (stereo not shown) [Compound 40, a 3-benzofurancarboxylic ester]
DAP in Broth [1]: 7.8 | DAP in Na-Sol. [2]: 3.5

O=c1c2ccccc2nc2n1CCc1c-2[nH]c2ccccc12 [Compound 57, Rutaecarpine]
DAP in Na-Sol. [2]: 3.1

COc1cc2c(c(OC)c1OC)-c1c(cc3c(c1OC)OCO3)C[C@H](C)[C@@](C)(O)C2 [Compound 44, Schizandrol B; Gomisin A]
DAP in Broth [1]: 8.6 | DAP in Na-Sol. [2]: 3.8

CC1(C)CC2C1CCC1(C)CC2(O)CCC1O (stereo not shown) [Compound 56, Senecrassidiol]
DAP in Broth [1]: 7.7 | DAP in Na-Sol. [2]: 4

CCCCC/C=C\CCCCCCc1cc(=O)c2ccccc2n1C [Compound 17, Evocarpine]
DAP in Broth [1]: 8.2 | DAP in Na-Sol. [2]: 3.6

COc1cc(COC(=O)CCCC/C=C/C(C)C)ccc1O [Compound 13, Capsiate]
DAP in Broth [1]: 7.9 | DAP in Na-Sol. [2]: 3.8

C=CCCCCCCC(C(=O)O)C(O)CC(=O)O (stereo not shown) [Compound 81, a 2-octenyl-3-hydroxy-1,5-pentanedioic acid]
DAP in Broth [1]: 7.8 | DAP in Na-Sol. [2]: 3.2

CCCCCCC[C@H](O)CC(=O)CCc1ccc(O)c(OC)c1 [Compound 9, 8-Gingerol]
DAP in Na-Sol. [2]: 3.8

CCC=CC=CC(O)CC=CCCCCCCCC(=O)O (stereo not shown) [Compound 86, 12-hydroxy-9,13,15-Octadecatrienoic acid]
DAP in Broth [1]: 8.0 | DAP in Na-Sol. [2]: 3.9

COc1c2c(cc3oc(=O)ccc13)OC(C)(C)C=C2 [Compound 27, Xanthoxyletin]
DAP in Na-Sol. [2]: 3.4

COc1c2ccoc2cc2oc(=O)ccc12 [Compound 62, Bergapten]
DAP in Broth [1]: 8.0 | DAP in Na-Sol. [2]: 3.9

CC(=O)OC1CC(C)C2(CCC3(COC(=O)C3)O2)C2(C)CCCC(C)(C)C12 (stereo not shown) [Compound 30]
DAP in Na-Sol. [2]: 3.1

COc1cc(CNC(=O)CCCCCCC(C)C)ccc1O [Compound 21, Dihydrocapsaicin]
DAP in Na-Sol. [2]: 4

CC(=O)O[C@@H]1C[C@H]2C(C)(C)C(=O)C=C[C@]2(C)[C@H]2CC[C@]3(C)C(=CC(=O)[C@H]3c3ccoc3)[C@@]21C [Compound 74, Azadiradione]
DAP in Broth [1]: 7.7 | DAP in Na-Sol. [2]: 3.2

C=C1C2CCC3C4(C)CCCC(C)(C(=O)O)C4CCC3(C2)C1OC(C)=O (stereo not shown) [Compound 94, Xylopic acid]
DAP in Na-Sol. [2]: 4.2

CCCCC[C@H](O)CC(=O)CCc1ccc(O)c(OC)c1 [Compound 5, [6]-Gingerol]
DAP in Na-Sol. [2]: 3.6

CCCCCCCCC(=O)CCc1ccc(O)c(OC)c1 [Compound 6, [7]-Paradol]
DAP in Na-Sol. [2]: 3.8

CCCC(=O)c1c(OC)cc(OC)c(CCO)c1O [Compound 54]
DAP in Broth [1]: 8.1 | DAP in Na-Sol. [2]: 3.4

CCC(O)CC(=O)CCc1ccccc1 (stereo not shown) [Compound 12, a 1-Ph-5-OH-3-heptanone]
DAP in Broth [1]: 7.6 | DAP in Na-Sol. [2]: 4

C/C(=C\CC/C(C)=C/CC[C@@H]1[C@@]2(C)CCC(=O)C(C)(C)C2CC[C@@]1(C)O)CC/C=C(\C)C(=O)O (stereo partly shown) [Compound 52, Myrrhanone B]
DAP in Na-Sol. [2]: 3.6

COC1CC(OC2CCC3(C=O)C(CCC4C3CCC3(C)C(C5=CC(=O)OC5)CCC43O)C2)OC(C)C1O (stereo not shown) [Compound 77, Apocannoside]
DAP in Broth [1]: 8.1 | DAP in Na-Sol. [2]: 3.4

C[C@@H]1C[C@@H]2O[C@@]3(O[C@@H]2C(C)(C)O)C(O)[C@@]2(C)C4CCC5C(C)(C)[C@@H](OC6OC[C@H](O)[C@@H](O)[C@@H]6O)CC[C@@]56C[C@@]46CC[C@]2(C)C13 (stereo partly drawn) [Compound 41, Cimigoside; b-D-Xylopyranoside]
DAP in Broth [1]: 7.5 | DAP in Na-Sol. [2]: 3.9

CC(=O)OC1CCC2(C)C(COc3ccc4ccc(=O)oc4c3)C(C)(O)CCC2C1(C)C (stereo not shown) [Compound 66, terpenoid coumarins]
DAP in Broth [1]: 7.8 | DAP in Na-Sol. [2]: 3.2

CCCCCC(CC(=O)CCc1ccc(O)c(OC)c1)OC (stereo not shown) [Compound 8, 5-methoxy-[6]-Gingerol]
DAP in Na-Sol. [2]: 4

COc1cc(O)c(C(/C=C/CC(O)CCc2ccc(O)cc2)c2ccc(O)cc2)c2c1C(=O)CC(c1ccc(O)cc1)O2 (stereo not shown) [Compound 50, Epicalyxin C]
DAP in Na-Sol. [2]: 4

COc1c(CC=C(C)C)c(=O)[nH]c2ccccc12 [Compound 61, Atanine]
DAP in Na-Sol. [2]: 3.6

COc1cc2oc(=O)ccc2c(OC)c1CC=C(C)C [Compound 28, Toddaculin]
DAP in Na-Sol. [2]: 3.6

C=C1C(=O)OC2CC3(C)CCCC(C)C3=CC12 (stereo not shown) [Compound 80a, Alantolactone]
DAP in Na-Sol. [2]: 3.9

C=C1C(=O)O[C@@H]2C[C@@]3(C)CCCC(=C)[C@@H]3C[C@H]12 [Compound 80b, Isoalantolactone]
DAP in Na-Sol. [2]: 3.9

C=CC(C)(CC/C=C(\C)CC/C=C(\C)CC/C=C(/C)COC1OC(C)C(O)C(OC2OC(COC3OC(C)C(O)C(O)C3OC(=O)/C(C)=C/C(O)C/C(C)=C/CC/C(C)=C/CCC(C)(C=C)OC3OC(CO)C(O)C(O)C3OC3OC(CO)C(O)C(O)C3O)C(O)C(O)C2O)C1O)OC1OC(CO)C(O)C(O)C1OC1OC(CO)C(O)C(O)C1O (stereo not shown) [Compound 92, Capsianoside D]
DAP in Na-Sol. [2]: 4

CCCCCCCC(=O)CCc1ccc(O)c(OC)c1 [Compound 7, [6]-Paradol or [6]-Gingerone]
DAP in Na-Sol. [2]: 3.7

C[C@@H]1C[C@H]2OC(=O)[C@@]3(C)CCC[C@](C)(C23)[C@@]1(O)CCc1ccoc1 (stereo partly shown) [Compound 31, Marrubin]
DAP in Na-Sol. [2]: 3.2

CCC=CCC=CC=CC(O)CCCCCCCC(=O)O (stereo not shown) [Compound 85, 9-hydroxy-10,12,15-Octadecatrienoic acid]
DAP in Na-Sol. [2]: 2.9

COc1c(CC=C(C)C)c(=O)n(C)c2c(OC)cccc12 [Compound 25, O-Methylglycosolone]
DAP in Na-Sol. [2]: 3.9

CCC(O)CC(=O)CCc1ccccc1 (stereo not shown) [Compound 20, a 1-Ph-5-OH-3-heptanone]
DAP in Na-Sol. [2]: 4

C/C=C1\C(=O)CC2C3CCC4=CC(=O)CC[C@]4(C)C3CCC12C (stereo partly shown) [Compound 75, (Z)-Guggulsterone]
DAP in Na-Sol. [2]: 3.6

From patent publication US10159268B2, “Reduced sodium food products” (GENERAL MILLS, INC., priority 2013, dated 2018)
